Converted amounts (≈) assume the structure as drawn.
B1: N-terminal domain of MtpA (aa 49-444): truncated N-terminal domain of MtpA, codon optimized, Strep-, HA- and His-tagged, purified from E. coli (protein, UniProt O05442 49-444, looked up, fragment)
chain: GAVFGRSYDGSAAALVQAMSVARNGLCNLGDGVRMSAHNYSLAEAMSDVAGRAAPLPAPPPSGCVGVGAPPSAVGGGGGAPKGWGWVAPYIGMIWPNGDSTKLRAAAVAWRSAGTQFALTEIQSTAGPMGVIRAQQLPEAGLIESAFADAYASTTAVVGQCHQLAAQLDAYAARIDAVHAAVLDLLARICDPLTGIKEVWEFLTDQDEDEIQRIAHDIAVVVDQFSGEVDALAAEITAVVSHAEAVITAMADHAGKQWDRFLHSNPVGVVIDGTGQQLKGFGEEAFGMAKDSWDLGPLRASIDPFGWYRSWEEMLTGMAPLAGLGGENAPGVVESWKQFGKSLIHWDEWTTNPNEALGKTVFDAATLALPGGPLSKLGSKGRDILAGVRGLKERLE
modifications: Strep, HA and His tags
notes: truncated N-terminal domain of MtpA, codon optimized, Strep-, HA- and His-tagged, purified from E. coli
B2: N-terminal domain of MtpA: N-terminal domain (aa 1-444) of MtpA (Rv3903c), HA- and His-tagged, expressed in and purified from M. smegmatis (protein, UniProt O05442 1-444, looked up, fragment)
chain: MAPLAVDPAALDSAGGAVVAAGAGLGAVISSLTAALAGCAGMAGDDPAGAVFGRSYDGSAAALVQAMSVARNGLCNLGDGVRMSAHNYSLAEAMSDVAGRAAPLPAPPPSGCVGVGAPPSAVGGGGGAPKGWGWVAPYIGMIWPNGDSTKLRAAAVAWRSAGTQFALTEIQSTAGPMGVIRAQQLPEAGLIESAFADAYASTTAVVGQCHQLAAQLDAYAARIDAVHAAVLDLLARICDPLTGIKEVWEFLTDQDEDEIQRIAHDIAVVVDQFSGEVDALAAEITAVVSHAEAVITAMADHAGKQWDRFLHSNPVGVVIDGTGQQLKGFGEEAFGMAKDSWDLGPLRASIDPFGWYRSWEEMLTGMAPLAGLGGENAPGVVESWKQFGKSLIHWDEWTTNPNEALGKTVFDAATLALPGGPLSKLGSKGRDILAGVRGLKERLE
modifications: HA and His tags
notes: N-terminal domain (aa 1-444) of MtpA (Rv3903c), HA- and His-tagged, expressed in and purified from M. smegmatis

Legend:
M. Bovis BCG Wild-type = assay: microbe, parasite or virus in culture; assay type: cell-based; settings: Mycobacterium tuberculosis variant bovis BCG
M. Bovis BCG ΔMtpA = assay type: cell-based; settings: for Resistance factor: ratio MICΔMtpA/MICwt
[1] = system: M. Bovis BCG ΔMtpA + MspA; assay type: cell-based
[2] = system: M. Bovis BCG ΔMtpA + MtpA; assay type: cell-based
[3] = system: wild-type M. bovis BCG in human monocyte-derived macrophages (HMDM); assay type: cell-based
[4] = system: ΔMtpA mutant of M. bovis BCG in human monocyte-derived macrophages (HMDM); assay type: cell-based
[5] = Channel activity analysis, planar lipid bilayer single channel recording; assay type: biochemical

Row | Molecule | MIC (M. Bovis BCG Wild-type; wild-type strain) [µg/mL] | MIC for M. Bovis BCG ΔMtpA (M. Bovis BCG ΔMtpA) [µg/mL] | Resistance factor (M. Bovis BCG ΔMtpA) | MIC for M. Bovis BCG ΔMtpA + MspA [1] [µg/mL] | MIC for M. Bovis BCG ΔMtpA + MtpA [2] [µg/mL] | further results
1 | CO[C@H]1/C=C/O[C@@]2(C)Oc3c(C)c(O)c4c(O)c(c(/C=N/N5CCN(C)CC5)c(O)c4c3C2=O)NC(=O)/C(C)=C\C=C\[C@H](C)[C@H](O)[C@@H](C)[C@@H](O)[C@@H](C)[C@H](OC(C)=O)[C@@H]1C [Rifampicin] | – | – | – | – | – | MIC (M. Bovis BCG Wild-type): 0.008 µg/mL (≈ 0.00972 µM)
2 | COc1c(N2C[C@@H]3CCCN[C@@H]3C2)c(F)cc2c(=O)c(C(=O)O)cn(C3CC3)c12 [Moxifloxacin] | 0.5 (≈ 1.25 µM) | – | – | – | – | –
3 | [H]/N=C(/N)N[C@H]1[C@H](O)[C@@H](O)[C@H](O[C@@H]2O[C@@H](C)[C@](O)(C=O)[C@H]2O[C@@H]2O[C@@H](CO)[C@H](O)[C@@H](O)[C@@H]2NC)[C@@H](N/C(N)=N\[H])[C@@H]1O [Streptomycin] | 0.16 (≈ 0.275 µM) | 0.64 | 4 | 0.32 | 0.32 | –
4 | CN[C@H](CC(C)C)C(=O)N[C@H]1C(=O)N[C@@H](CC(N)=O)C(=O)N[C@H]2C(=O)N[C@H]3C(=O)N[C@H](C(=O)N[C@H](C(=O)O)c4cc(O)cc(O)c4-c4cc3ccc4O)[C@H](O)c3ccc(c(Cl)c3)Oc3cc2cc(c3O[C@@H]2O[C@H](CO)[C@@H](O)[C@H](O)[C@H]2O[C@H]2C[C@](C)(N)[C@H](O)[C@H](C)O2)Oc2ccc(cc2Cl)[C@H]1O [Vancomycin] | – | 20 | 4 | 10 | 10 | MIC (M. Bovis BCG Wild-type): 5 µg/mL (≈ 3.45 µM)
5 | CCn1cc(C(=O)O)c(=O)c2cc(F)c(N3CCNCC3)cc21 [Norfloxacin] | 1 (≈ 3.13 µM) | 4 | 4 | 2 | 2 | –
6 | Nc1ccc(C(=O)O)c(O)c1 [p-aminosalicylic acid] | 2 (≈ 13.1 µM) | >8 | >4 | 2 | 2 | change of resistance / MIC in the ΔMtpA mutant, in words (M. Bovis BCG ΔMtpA): more than eight-fold
7 | CN(C)[C@@H]1C(O)=C(C(N)=O)C(=O)[C@@]2(O)C(O)=C3C(=O)c4c(O)cccc4[C@@](C)(O)[C@H]3C[C@@H]12 [Tetracycline] | – | – | – | – | – | MIC (M. Bovis BCG Wild-type): 31.2 µg/mL (≈ 70.3 µM)
8 | N[C@@H]1CON=C1O [cycloserine] | 4 (≈ 39.2 µM) | 8 | 2 | 4 | 4 | –
9 | γ-interferon: human IFN-γ, induces nitric oxide synthase activity in macrophages | – | – | – | – | – | bacteria recovered from stimulated HMDMs [3]: drastic decrease in bacteria recovered; survival in treated macrophages compared to untreated cells [4]: no significant difference
10 | CC1(C)S[C@@H]2[C@H](NC(=O)[C@H](N)c3ccccc3)C(=O)N2[C@H]1C(=O)O [Ampicillin] | 30 (≈ 85.9 µM) | 960 | 32 | 60 | 60 | increased minimal inhibitory concentration (MIC) / resistance in the ΔMtpA strain (M. Bovis BCG ΔMtpA): 32 fold
11 | CC[C@@H](CO)NCCN[C@@H](CC)CO [Ethambutol] | 0.125 (≈ 0.612 µM) | >1 | >8 | 0.125 | 0.125 | change of resistance / MIC in the ΔMtpA mutant, in words (M. Bovis BCG ΔMtpA): more than eight-fold
12 | O=C(N[C@H](CO)[C@H](O)c1ccc([N+](=O)[O-])cc1)C(Cl)Cl [Chloramphenicol] | 4 (≈ 12.4 µM) | 64 | 16 | 8 | 8 | increased minimal inhibitory concentration (MIC) / resistance in the ΔMtpA strain (M. Bovis BCG ΔMtpA): 16 fold
13 | O=C(O)c1cn(C2CC2)c2cc(N3CCNCC3)c(F)cc2c1=O [Ciprofloxacin] | – | – | – | 2 | 2 | MIC (M. Bovis BCG Wild-type): 1 µg/mL (≈ 3.02 µM)
14 | CC1COc2c(N3CCN(C)CC3)c(F)cc3c(=O)c(C(=O)O)cn1c23 (stereo not shown) [Ofloxacin] | 0.25 (≈ 0.692 µM) | – | – | – | – | –
15 | CC[C@H]1OC(=O)[C@H](C)[C@@H](O[C@H]2C[C@@](C)(OC)[C@@H](O)[C@H](C)O2)[C@H](C)[C@@H](O[C@@H]2O[C@H](C)C[C@H](N(C)C)[C@H]2O)[C@](C)(O)C[C@@H](C)C(=O)[C@H](C)[C@@H](O)[C@]1(C)O [Erythromycin A] | 16 (≈ 21.8 µM) | – | >16 | 32 | 16 | –
16 | C[C@H]1COc2c(N3CCN(C)CC3)c(F)cc3c(=O)c(C(=O)O)cn1c23 [Levofloxacin] | 0.125 (≈ 0.346 µM) | – | – | – | – | –
17 | NNC(=O)c1ccncc1 [Isoniazid] | 0.25 (≈ 1.82 µM) | >1 | >4 | 0.25 | – | change of resistance / MIC in the ΔMtpA mutant, in words (M. Bovis BCG ΔMtpA): more than eight-fold
18 | CC[C@H]1OC(=O)[C@H](C)[C@@H](O[C@H]2C[C@@](C)(OC)[C@@H](O)[C@H](C)O2)[C@H](C)[C@@H](O[C@@H]2O[C@H](C)C[C@H](N(C)C)[C@H]2O)[C@](C)(OC)C[C@@H](C)C(=O)[C@H](C)[C@@H](O)[C@]1(C)O [Clarithromycin] | 0.125 (≈ 0.167 µM) | >2 | >16 | 0.5 | 0.25 | –
19 | B1 | – | – | – | – | – | single channel conductance of protein purified from E. coli compared to that purified from M. smegmatis [5]: almost identical
20 | B2 | – | – | – | – | – | most frequent (main) single channel conductance [5]: 4.0±0.2 nS

From patent US10017550B2, “Mycobacterium tuberculosis porins and toxins and related methods” (priority 2011, dated 2018)
